Measurements as given in the supplement of paper PMC10307832.

Assays:
Assay in all cases: relative viability (nuclei count vs DMSO), 5 days (fraction); higher = more cells survive
Shikonin + Bortezomib = compound: CC(C)=CC[C@@H](O)C1=CC(=O)c2c(O)ccc(O)c2C1=O [Shikonin] + CC(C)C[C@H](NC(=O)[C@H](Cc1ccccc1)NC(=O)c1cnccn1)B(O)O [Bortezomib] (partner 0.002 µM)
In short: (§1)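 Lung cancer cell lines in 1536-well plates were dosed by pin tool the day after seeding, either with one drug alone or with a fixed anchor-drug dose plus five library-drug doses (not always all listed) in √10 steps. After 5 days, cells were fixed and their nuclei stained in one step (final 0.05% Triton X-100, 1% formaldehyde, 1 ug/ml Hoechst), then counted on 4× images. Relative viability is the nuclei count in treated wells divided by that in vehicle wells. Values are medians of duplicate plates.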

Shikonin + Pictilisib = compound: CC(C)=CC[C@@H](O)C1=CC(=O)c2c(O)ccc(O)c2C1=O [Shikonin] + CS(=O)(=O)N1CCN(Cc2cc3nc(-c4cccc5[nH]ncc45)nc(N4CCOCC4)c3s2)CC1 [Pictilisib] (partner 1 µM)
In short: as §1

Shikonin + Olaparib = compound: CC(C)=CC[C@@H](O)C1=CC(=O)c2c(O)ccc(O)c2C1=O [Shikonin] + O=C(c1cc(Cc2n[nH]c(=O)c3ccccc23)ccc1F)N1CCN(C(=O)C2CC2)CC1 [Olaparib] (partner 8 µM)
In short: as §1

[1] = compound: CC(C)N(CCCNC(=O)Nc1ccc(C(C)(C)C)cc1)C[C@H]1O[C@@H](n2ccc3c(N)ncnc32)[C@H](O)[C@@H]1O + Cc1nc(Nc2ncc(C(=O)Nc3c(C)cccc3Cl)s2)cc(N2CCN(CCO)CC2)n1 [Dasatinib] (partner 0.075 µM)
In short: as §1

Cell Line	relative viability (Shikonin + Bortezomib; first compound 0.01 µM)	relative viability (Shikonin + Bortezomib; first compound 0.1 µM)	relative viability (Shikonin + Bortezomib; first compound 0.3162 µM)	relative viability (Shikonin + Bortezomib; first compound 1 µM)	relative viability (Shikonin + Pictilisib; first compound 0.01 µM)	relative viability (Shikonin + Pictilisib; first compound 0.1 µM)	relative viability (Shikonin + Pictilisib; first compound 0.3162 µM)	relative viability (Shikonin + Pictilisib; first compound 1 µM)	relative viability (Shikonin + Olaparib; first compound 0.01 µM)	relative viability (Shikonin + Olaparib; first compound 0.1 µM)	relative viability (Shikonin + Olaparib; first compound 0.3162 µM)	relative viability (Shikonin + Olaparib; first compound 1 µM)	relative viability ([1]; first compound 0.08 µM)	relative viability ([1]; first compound 0.253 µM)	relative viability ([1]; first compound 0.8 µM)	relative viability ([1]; first compound 2.53 µM)	relative viability ([1]; first compound 8 µM)
LC-2-ad	1.08	1.05	1.07	1.02	0.336	0.506	0.469	0.408	0.736	0.872	0.689	0.765	0.528	0.569	0.527	0.502	0.632
LCLC-97TM1	0.331	0.721	0.814	0.631	0.172	0.143	0.266	0.169	0.383	0.539	0.48	0.419	0.897	0.783	0.933	0.822	0.82
LCLC-103H	1.12	1.12	1.07	1.25	0.503	0.708	0.677	0.676	0.793	0.94	0.788	0.839	0.435	0.424	0.449	0.428	0.443
LOU-NH91	0.533	0.469	0.445	0.535	0.509	0.544	0.52	0.563	0.926	0.937	0.984	0.896	0.572	0.579	0.485	0.553	0.529
LU99A	1.21	1.33	1.09	1.03	0.309	0.3	0.337	0.303	0.256	0.272	0.233	0.222	0.477	0.381	0.679	0.597	0.479
LXF-289	1.1	1.03	1	1.04	0.868	0.784	0.799	0.775	1.11	0.966	1.11	1.06	0.281	0.271	0.231	0.186	0.229
NCI-H23	1.11	0.953	1.13	1.13	0.508	0.514	0.497	0.378	0.36	0.248	0.317	0.313	0.685	0.645	0.716	0.798	0.725
NCI-H322M	1.14	1.32	1.26	1.33	0.498	0.526	0.496	0.504	0.806	0.757	0.671	0.88	0.278	0.266	0.264	0.24	0.284
NCI-H441	0.581	0.666	0.549	0.603	0.621	0.436	0.485	0.437	0.647	0.637	0.626	0.531	0.718	0.535		0.544	0.535
NCI-H460	1.35	0.78	1.03	1.3	0.357	0.441	0.357	0.375	0.584	0.615	0.515	0.39	0.41	0.531	0.453	0.504	0.456
NCI-H520		0.699	0.48	0.689		0.393	0.263	0.348	0.323	0.368	0.283	0.295	0.186	0.145	0.151	0.293	0.229
NCI-H596	1.06	1.01	0.948	1.29	0.341	0.385	0.422	0.4	0.547	0.728	0.709	0.605	0.603		0.528	0.561	0.619
NCI-H647	1.06	0.829	1.05	1.03	0.458	0.552	0.441	0.573	0.723	0.597	0.488	0.47	0.183	0.15		0.205	0.212
NCI-H650	0.83		0.77	0.98	0.946		0.965	0.845	0.373	0.406	0.399	0.345	0.416	0.425	0.468	0.434	0.438
NCI-H661	0.835	0.818	0.734	0.769	0.372	0.427	0.39	0.38	0.847	0.879	0.73	0.646	0.875	0.787	0.892	0.885	0.821
NCI-H727	0.862	0.933	0.973	0.755	0.326	0.353	0.311	0.431	0.685	0.737	0.648	0.583	0.381	0.427	0.345	0.393	0.333
NCI-H838	0.992	0.727	0.842	0.685	0.529	0.601	0.443	0.452	0.798	0.845	0.865	0.667	0.268	0.262	0.279	0.263	0.31
NCI-H1355	1.24	1.25	1.22	1.23	0.407	0.498	0.408	0.445	0.811	0.812	0.786	0.776	0.71	0.548	0.379	0.698	0.668
NCI-H1437	0.643	0.562	0.527	0.46	0.424	0.421	0.416	0.477	0.661	0.678	0.601	0.521	0.359	0.37	0.443	0.337	0.327

Cell Line	relative viability (Shikonin + Bortezomib; first compound 0.01 µM)	relative viability (Shikonin + Bortezomib; first compound 0.1 µM)	relative viability (Shikonin + Bortezomib; first compound 0.3162 µM)	relative viability (Shikonin + Bortezomib; first compound 1 µM)	relative viability (Shikonin + Pictilisib; first compound 0.01 µM)	relative viability (Shikonin + Pictilisib; first compound 0.1 µM)	relative viability (Shikonin + Pictilisib; first compound 0.3162 µM)	relative viability (Shikonin + Pictilisib; first compound 1 µM)	relative viability (Shikonin + Olaparib; first compound 0.01 µM)	relative viability (Shikonin + Olaparib; first compound 0.1 µM)	relative viability (Shikonin + Olaparib; first compound 0.3162 µM)	relative viability (Shikonin + Olaparib; first compound 1 µM)	relative viability ([1]; first compound 0.08 µM)	relative viability ([1]; first compound 0.253 µM)	relative viability ([1]; first compound 0.8 µM)	relative viability ([1]; first compound 2.53 µM)	relative viability ([1]; first compound 8 µM)
NCI-H1650	0.269	0.212	0.191	0.171	0.682	0.684	0.481	0.571	0.877	0.787	0.732	0.718	0.347	0.379		0.275	0.349
NCI-H1651	0.986	1.06	0.948	0.928	0.612	0.562	0.669	0.64	0.173	0.188	0.161	0.178	0.317	0.373	0.291	0.386	0.517
NCI-H1666	0.799	0.879	0.819	0.729	0.643	0.358	0.394	0.299	0.748	0.732	0.773	0.699	0.874	0.796	0.799	0.813	0.705
NCI-H1734	1.09	0.999	0.819	0.909	0.495	0.551	0.441	0.494	0.697	0.655	0.695	0.632	0.411	0.415	0.456	0.485	0.508
NCI-H1755	0.978	1.1	1.11	0.98	0.468	0.472	0.406	0.472	0.794	0.909	0.837	0.792	0.373	0.44	0.418	0.428	0.429
NCI-H1792	1.14	0.858	1.12	1.04	0.306	0.206	0.293	0.308	0.263	0.314	0.463	0.427	0.768	0.785	0.871	0.71	0.783
NCI-H1915	1.01	1.15	1.06	1.06	0.975	1.09	1.05	0.958	0.254	0.268	0.257	0.245	0.311	0.34	0.311	0.323	0.314
NCI-H1975	0.273	0.365	0.452	0.363	0.287	0.283	0.268	0.294	0.815	0.836	0.955	0.715	0.382	0.337	0.241	0.341	0.288
NCI-H1993		1.19	1.09	1.03		0.84	0.803	0.792	0.92	0.943	1.12	1.32	0.476			0.768	0.718
NCI-H2009	1.07	1.11	0.904	0.289	0.817	1.13	0.671	0.187	0.774	0.691	0.624	0.497	0.261	0.281	0.273	0.288	0.295
NCI-H2023	1.05	1.21	1.05	0.97	0.225	0.31	0.223	0.257	0.478	0.559	0.622	0.437	0.503	0.668	0.602	0.662	0.55
NCI-H2085	1.08	1.02	1.01	0.922	0.41	0.47	0.424	0.411	0.756	0.82	0.725	0.76	0.248	0.218	0.288	0.232	0.26
NCI-H2087	0.951	0.888	1.14	0.898	0.767	1.05	0.843	0.861	0.696	0.544	0.592	0.551	0.876	1.03	0.77	1.04	0.948
NCI-H2126	1.16	1.23	1.1	1.19	0.508	0.5	0.496	0.553	0.953	1.14	0.943	0.92	0.616	0.582	0.603	0.601	0.554
NCI-H2228	0.928	0.877	1.25	0.981	0.344	0.438	0.465	0.252	0.987	0.808	0.681	0.272	0.54	0.457	0.502	0.416	0.613
NCI-H2347	1.09	1.11	0.848	1.23	0.701	0.764	0.582	0.573	0.55	0.619	0.451	0.551	0.305	0.305	0.326	0.296	0.293
NCI-H2405	0.963	0.974	1.01	1	0.442	0.401	0.553	0.474	0.918	0.952	0.892	0.868	0.193	0.199	0.242	0.2	0.241
NCI-H3122	1.06	1.13	1.01	1.06	0.638	0.643	0.607	0.494	0.655	0.631	0.621	0.679	0.696	0.814	0.559	0.786	0.739
PC-3 [JPC-3]	0.824	0.894	0.837	0.868	0.69	0.84	0.759	0.788	1.08	1.16	1.33	1.27	0.921	0.971	0.884	0.892	0.868
